Source: ChEMBL document CHEMBL1130228, “Potent and selective 1,2,3-trisubstituted indole NPY Y-1 antagonists” (J Med Chem, 1997)

Experiments:
[1] = molecular target: T1, Neuropeptide Y receptor type 1 (Homo sapiens, UniProt P25929); test: Binding affinity for Neuropeptide Y receptor type 1 expressed in AV-12 cells; type: cell-based, AV12
T1 sequence (P25929 whole entry): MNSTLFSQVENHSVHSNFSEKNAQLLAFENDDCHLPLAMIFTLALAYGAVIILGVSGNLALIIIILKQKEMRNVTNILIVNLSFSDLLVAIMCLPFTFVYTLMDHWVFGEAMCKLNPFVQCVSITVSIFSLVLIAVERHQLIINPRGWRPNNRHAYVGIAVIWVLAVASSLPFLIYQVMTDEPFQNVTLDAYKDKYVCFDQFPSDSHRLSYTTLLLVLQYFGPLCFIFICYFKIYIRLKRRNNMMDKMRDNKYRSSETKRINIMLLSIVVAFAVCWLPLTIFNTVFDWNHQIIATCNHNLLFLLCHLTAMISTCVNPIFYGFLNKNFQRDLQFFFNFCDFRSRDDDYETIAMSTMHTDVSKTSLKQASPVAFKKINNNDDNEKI

[2] = molecular target: Neuropeptide Y receptor type 4 (Homo sapiens, UniProt P50391); test: Affinity for human Neuropeptide Y receptor type 4
Chain of Neuropeptide Y receptor type 4 (P50391 whole entry): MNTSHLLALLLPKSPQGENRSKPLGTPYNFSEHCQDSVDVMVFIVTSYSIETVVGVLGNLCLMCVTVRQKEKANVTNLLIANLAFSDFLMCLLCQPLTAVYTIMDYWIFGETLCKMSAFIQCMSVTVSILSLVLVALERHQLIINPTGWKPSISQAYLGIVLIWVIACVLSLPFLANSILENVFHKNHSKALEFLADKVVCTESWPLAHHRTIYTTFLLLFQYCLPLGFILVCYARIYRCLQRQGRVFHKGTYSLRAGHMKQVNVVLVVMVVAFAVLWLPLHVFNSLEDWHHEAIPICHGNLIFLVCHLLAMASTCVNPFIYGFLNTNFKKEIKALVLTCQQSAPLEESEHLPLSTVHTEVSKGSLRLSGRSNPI

[3] = molecular target: T2, Neuropeptide Y receptor type 5 (Homo sapiens, UniProt Q15761); test: Affinity for human Neuropeptide Y receptor type 5
T2 sequence (Q15761 whole entry): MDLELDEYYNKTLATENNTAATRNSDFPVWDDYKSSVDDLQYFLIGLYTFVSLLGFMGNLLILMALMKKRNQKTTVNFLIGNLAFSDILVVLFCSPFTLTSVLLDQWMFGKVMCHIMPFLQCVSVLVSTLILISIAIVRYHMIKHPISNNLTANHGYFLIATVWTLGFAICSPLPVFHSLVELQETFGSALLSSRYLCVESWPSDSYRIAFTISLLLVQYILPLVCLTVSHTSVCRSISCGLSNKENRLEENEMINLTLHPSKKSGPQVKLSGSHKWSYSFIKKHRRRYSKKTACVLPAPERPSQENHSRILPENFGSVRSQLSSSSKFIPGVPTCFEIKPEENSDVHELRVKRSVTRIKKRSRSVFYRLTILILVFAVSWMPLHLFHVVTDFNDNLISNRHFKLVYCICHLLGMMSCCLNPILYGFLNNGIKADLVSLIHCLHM

[4] = molecular target: T3, Neuropeptide Y receptor type 2 (Homo sapiens, UniProt P49146); test: Affinity for human Neuropeptide Y receptor type 2
T3 sequence (P49146 whole entry): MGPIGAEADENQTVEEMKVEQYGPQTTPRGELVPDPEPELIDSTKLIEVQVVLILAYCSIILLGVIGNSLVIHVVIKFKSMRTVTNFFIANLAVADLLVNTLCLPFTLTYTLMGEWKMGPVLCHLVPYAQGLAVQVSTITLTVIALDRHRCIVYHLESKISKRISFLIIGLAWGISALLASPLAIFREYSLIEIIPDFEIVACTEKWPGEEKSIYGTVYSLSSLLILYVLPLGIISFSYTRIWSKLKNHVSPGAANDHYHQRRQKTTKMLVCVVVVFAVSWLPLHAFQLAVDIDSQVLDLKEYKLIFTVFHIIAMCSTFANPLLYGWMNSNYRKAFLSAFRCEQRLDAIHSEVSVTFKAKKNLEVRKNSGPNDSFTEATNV

[5] = molecular target: T1, Neuropeptide Y receptor type 1; test: Ability to reverse Neuropeptide Y receptor type 1-induced inhibition of forskolin-induced inhibition of forskolin-stimulated cAMP; type: functional
Mus musculus = test: Ability to block increase in food consumption elicited by NPY (230 pmol, icv) into lateral ventricle of mice; type: functional
SK-N-MC = test: Ability to reverse NPY-induced intracellular [Ca2+] mobilization in SK-N-MC cells; type: functional, cell-based, Homo sapiens

Row | Compound | Ki [1] [µM] | Ki [2] [µM] | Ki [3] [µM] | Ki [4] [µM] | Ki [5] [µM] | ED50 (Mus musculus) [µM] | Ki (SK-N-MC) [µM]
1 | Clc1ccc(OCc2c(CN3CCC(N4CCCCC4)CC3)c3ccccc3n2CCN2CCCCC2)cc1 | 0.098 | > 10 | > 10 | > 10 | – | – | –
2 | Cn1c(COc2ccc(Cl)cc2)c(CCN2CCC(N3CCCCC3)CC2)c2ccccc21 | 0.093 | > 10 | > 10 | > 10 | – | – | –
3 | Cn1c(COc2ccc(Cl)cc2)c(C(=O)CN2CCC(N3CCCCC3)CC2)c2ccccc21 | 0.026 | > 10 | > 10 | > 10 | – | – | –
4 | O=C(CN1CCC(N2CCCCC2)CC1)c1c(COc2ccc(Cl)cc2)n(CCC[C@@H]2CCCNC2)c2ccccc12 | 0.00075 | > 10 | > 10 | > 10 | 0.0018 | 0.017 | 0.0032
5 | Cn1c(COc2ccc(Cl)cc2)c(C(=O)C(=O)N2CCC(N3CCCCC3)CC2)c2ccccc21 | 0.44 | > 10 | > 10 | > 10 | – | – | –
6 | O=C(CN1CCC(N2CCCCC2)CC1)c1c(COc2ccc(Cl)cc2)n(CCC[C@H]2CCCNC2)c2ccccc12 | 0.0014 | > 10 | > 10 | > 10 | – | – | –
7 | N=C(N)NCCC[C@@H](NC(=O)C(c1ccccc1)c1ccccc1)C(=O)NCc1ccc(O)cc1 | – | > 10 | > 10 | > 10 | – | – | –
8 | O=C(CN1CCC(N2CCCCC2)CC1)c1c(COc2ccc(Cl)cc2)n(CCC2CCNCC2)c2ccccc12 | 0.0019 | > 10 | > 10 | > 10 | – | – | –

Second part, led by results:

Row | Ki [1] [µM] | Ki [2] [µM] | Ki [3] [µM] | Ki [4] [µM] | Compound | Ki [5] [µM] | ED50 (Mus musculus) [µM] | Ki (SK-N-MC) [µM]
9 | 2.88 | > 10 | > 10 | > 10 | Cn1c(COc2ccc(Cl)cc2)c(CCN2CCCCC2)c2ccccc21 | – | – | –
10 | 1.26 | > 10 | > 10 | > 10 | Cn1c(COc2ccc(Cl)cc2Cl)c(CN2CCCCC2)c2ccccc21 | – | – | –
11 | 0.559 | > 10 | > 10 | > 10 | Cn1c(COc2ccc(Cl)cc2)c(CN2CCC(N3CCCCC3)CC2)c2ccccc21 | – | – | –
12 | 2.32 | > 10 | > 10 | > 10 | Cn1c(COc2ccc(Cl)cc2)c(CN2CCCCC2)c2ccccc21 | – | – | –
